Measured values taken from patent US12583818B2 (DAEGU-GYEONGBUK MEDICAL INNOVATION FOUNDATION, priority 2020, dated 2026).
Read-outs that look alike come from different tables or passages of the source.

How the values were obtained:
[1] = target: T1, Pin1 (Homo sapiens, UniProt Q13526); assay: Evaluation of Pin1 enzyme inhibitory activity (Sensolyte Green Pin1 assay kit); assay type: biochemical
T1 construct: purchased Anaspec
Procedure, shortened: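 Pin1 activity was measured with a fluorogenic kit assay (Sensolyte Green) using substrate prepared at 1 μM and protein at 50 μg/ml, both pre-mix concentrations. Compound working solutions were 100, 10, 1 or 0.1 μM, and reactions ran 2 h at room temperature in the dark, read at 490/520 nm. Inhibition was graded A–D by concentration.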

[2] = test system: A2780 cells (ovarian cancer cells); assay: Cell viability of A2780 cells (Cell-titer Glo); assay type: cell-based; settings: Homo sapiens
Description: (§1) In order to confirm the inhibitory effect of the compound represented by formula 1 according to the present invention on the growth of MCF7, MCF7-SP, A2780 or A2780-SP cells, the following experiment was performed, and the results are shown in Tables 4 and 5 below.
In addition, A2780 cells (ovarian cancer cells) were plated in a 96-well plate at the density of 3000 viable cells per well, and cultured in RPMI-1640 medium supplemented with 10% FBS and 1% penicillin/streptomycin.
(§2) On the next day of culture, the cells were treated with the compound of Examples 57, and 69 to 144, followed by culture for 3 days. Cell viability was evaluated by Cell-titer Glo (Promega, WC, USA), and luciferase activity was detected using a Tecan plate reader (Biocompare, USA).

[3] = test system: A2780-SP cells (ovarian cancer stem cells); assay: Sphere cell viability of A2780-SP cells (Cell-titer Glo); assay type: cell-based
Description: as §1
On the other hand, A2780-SP cells (ovarian cancer stem cells) were plated in an Ultra-Low Attachment round bottom 96-well plate (corning) at the density of 1,500 viable cells per well, and cultured in cancer stem cell medium. The cancer stem cell medium is composed of the neurobasal medium supplemented with 20 ng/ml of bFGF, 10 ng/ml of EGF, […] of amphotericin B, HEPES, Glutamax and B27.
as §2, with “for 8” for “for 3”, “days. The medium containing the compound was added thereto once again on the 4th day. Sphere cell” for “days. Cell”

[4] = Table 2, read-out: concentration at which Pin1 inhibitory activity was exhibited
[5] = concentration at which the Pin1 enzyme activity is inhibited, 2 hours at room temperature, fluorescence 490 nm/520 nm, read-out: Pin 1 inhibition
[6] = 72 h, cell viability, culture for 3 days, read-out: A2780
[7] = A2780, Table 5, read-out: A2780 cell concentration
[8] = 192 h, sphere cell viability, culture for 8 days, read-out: A2780-SP
[9] = Table 5, read-out: the concentration (second list of b710, cell line not named; matches A2780-SP column)

T1 sequence (Q13526 whole entry): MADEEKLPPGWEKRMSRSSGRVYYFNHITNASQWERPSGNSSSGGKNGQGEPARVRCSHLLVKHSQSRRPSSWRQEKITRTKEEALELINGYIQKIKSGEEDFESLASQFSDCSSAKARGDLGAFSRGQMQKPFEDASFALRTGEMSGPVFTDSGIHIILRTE

Structure (SMILES) | IC50 [1, 4] [nM] | IC50 [1, 5] [nM] | IC50 [2, 6] [nM] | IC50 [2, 7] [nM] | IC50 [3, 8] [nM] | IC50 [3, 9] [nM]
C[C@H]1CN(CCCOc2ccc(S(=O)(=O)NCCCc3c[nH]c4ccc(Cl)cc34)cc2)CCN1 [Example 109, (S)—N-(3-(5-chloro-1H-indol-3-yl)propyl)-4-(3-(3-methylpiperazin-1-yl)propoxy)benzenesulfonamide] | < 1000 | < 1000 | 1000 to 10000 | < 10000 | < 1000 | < 1000
C[C@@H]1CN(CCCOc2ccc(S(=O)(=O)NCCCc3c[nH]c4ccc(Cl)cc34)cc2)C[C@H](C)N1 [Example 110, N-(3-(5-chloro-1H-indol-3-yl)propyl)-4-(3-((3S,5R)-3,5-dimethylpiperazin-1-yl)propoxy)benzenesulfonamide] |  | 1000 to 10000 | > 10000 |  | < 1000 | < 1000
C[C@H]1CN(CCCOc2ccc(S(=O)(=O)NCCCc3c[nH]c4ccc(Cl)cc34)cc2)CCN1C [Example 111, (S)—N-(3-(5-chloro-1H-indol-3-yl)propyl)-4-(3-(3,4-dimethylpiperazin-1-yl)propoxy)benzenesulfonamide] |  | 1000 to 10000 | > 10000 |  | < 1000 | < 1000
CN1CCN(CCCCc2ccc(S(=O)(=O)NCCCc3c[nH]c4ccc(Cl)cc34)cc2)CC1 [Example 112, N-(3-(5-chloro-1H-indol-3-yl)propyl)-4-(4-(4-methylpiperazin-1-yl)butyl)benzenesulfonamide] | < 1000 | < 1000 | > 10000 |  | < 1000 | < 1000
CN1CCN(c2cc(Oc3ccc(S(=O)(=O)NCCCc4c[nH]c5ccc(Cl)cc45)cc3)cc(N3CCN(C)CC3)c2)CC1 [Example 130, 4-(3,5-bis(4-methylpiperazine-1-yl)phenoxy)-N-(3-(5-chloro-1H-indole-3-yl)propyl)benzenesulfonamide] | < 1000 | < 1000 | 1000 to 10000 | < 10000 | 1000 to 10000 | 
CN1CCN(c2ccnc(Nc3ccc(S(=O)(=O)NCCCc4c[nH]c5ccc(Cl)cc45)cc3)c2)CC1 [Example 133, N-(3-(5-chloro-1H-indol-3-yl)propyl)-4-((4-(4-methylpiperazin-1-yl)pyridin-2-yl)amino)benzenesulfonamide] | < 1000 | < 1000 | > 10000 |  | 1000 to 10000 | 
O=S(=O)(NCCCc1c[nH]c2ccc(Cl)cc12)c1ccc(Nc2cc(N3CCNCC3)ccn2)cc1 [Example 134, N-(3-(5-chloro-1H-indol-3-yl)propyl)-4-((4-(piperazin-1-yl)pyridin-2-yl)amino)benzenesulfonamide] | < 1000 | < 1000 | > 10000 |  | < 1000 | < 1000
CN1CCN(c2cc(F)cc(Oc3ccc(S(=O)(=O)NCCCc4c[nH]c5ccc(Cl)cc45)cc3)c2)CC1 [Example 137, N-(3-(5-chloro-1H-indol-3-yl)propyl)-4-(3-fluoro-5-(4-methylpiperazin-1-yl)phenoxy)benzenesulfonamide] | < 1000 | < 1000 | > 10000 |  | 1000 to 10000 | 
CN1CCN(c2cc(Br)cc(Oc3ccc(S(=O)(=O)NCCCc4c[nH]c5ccc(Cl)cc45)cc3)c2)CC1 [Example 138, N-(3-(5-chloro-1H-indole-3-yl)propyl)-4-(3-bromo-5-(4-methylpiperazine-1-yl)phenoxy)benzenesulfonamide] | < 1000 | < 1000 | > 10000 |  | 1000 to 10000 | 
CS(=O)(=O)CCCOc1ccc(S(=O)(=O)NCCCc2c[nH]c3ccc(Cl)cc23)cc1 [Example 145, N-(3-(5-chloro-1H-indol-3-yl)propyl)-4-(3-(methylsulfonyl)propoxy)benzenesulfonamide] | < 1000 | < 1000 | > 10000 |  | > 10000 | 
O=S(=O)(NCCCc1c[nH]c2ccc(Cl)cc12)c1cnc(NCCCN2CCNCC2)s1 [Example 146, N-(3-(5-chloro-1H-indole-3-yl)propyl)-2-((3-(piperazine-1-yl)propyl)amino)thiazole-5-sulfonamide] | < 1000 | < 1000 | > 10000 |  | 1000 to 10000 | 
Cc1[nH]c2ccc(Cl)cc2c1CCCNS(=O)(=O)c1ccc(OCCCN2CCN(C)CC2)cc1 [Example 147, N-(3-(5-chloro-2-methyl-1H-indole-3-yl)propyl)-4-(3-(4-methylpiperazine-1-yl)propoxy)benzenesulfonamide] | < 1000 | < 1000 | > 10000 |  | > 10000 | 
O=S(=O)(NCCCc1c[nH]c2ccc(Cl)cc12)c1ccc(CCCCn2ccnc2)cc1 [Example 148] | < 1000 | < 1000 | > 10000 |  | 1000 to 10000 | 
CN1CCN(CCCOc2ccc(S(=O)(=O)Nc3ccccc3Cc3c[nH]c4ccc(Cl)cc34)cc2)CC1 [Example 149, N-(2-((5-chloro-1H-indole-3-yl)methyl)phenyl)-4-(3-(4-methylpiperazine-1-yl)propoxy)benzenesulfonamide] | < 1000 | < 1000 | > 10000 |  | > 10000 | 
O=S(=O)(Nc1ccccc1Cc1c[nH]c2ccc(Cl)cc12)c1ccc(OCCCN2CCNCC2)cc1 [Example 150, N-(2-((5-chloro-1H-indol-3-yl)methyl)phenyl)-4-(3-(piperazin-1-yl)propoxy)benzenesulfonamide] | < 1000 | < 1000 | > 10000 |  | < 1000 | < 1000
CC(CCc1c[nH]c2ccc(Cl)cc12)NS(=O)(=O)c1ccc(OCCCN2CCN(C)CC2)cc1 (stereo not shown) [Example 151] | < 1000 | < 1000 | > 10000 |  | < 1000 | < 1000
CC(CCc1c[nH]c2ccc(Cl)cc12)NS(=O)(=O)c1ccc(OCCCN2CCNCC2)cc1 (stereo not shown) [Example 152, N-(4-(5-chloro-1H-indol-3-yl)butan-2-yl)-4-(3-(piperazin-1-yl)propoxy)benzenesulfonamide] | < 1000 | < 1000 | > 10000 |  | < 1000 | < 1000
O=S(=O)(NCCCc1c[nH]c2ccc(Br)cc12)c1ccc(OCCCN2CCNCC2)cc1 [Example 153, N-(3-(5-bromo-1H-indole-3-yl)propyl)-4-(3-(piperazine-1-yl)propoxy)benzenesulfonamide] | < 1000 | < 1000 | 1000 to 10000 | < 10000 | < 1000 | < 1000
CN1CCN(CCCOc2ccc(S(=O)(=O)NCCCc3c[nH]c4ccc(Br)cc34)cc2)CC1 [Example 154, N-(3-(5-bromo-1H-indol-3-yl)propyl)-4-(3-(4-methylpiperazin-1-yl)propoxy)benzenesulfonamide] | < 1000 | < 1000 | 1000 to 10000 | < 10000 | < 1000 | < 1000
Cc1[nH]c2ccc(Cl)cc2c1CCCNS(=O)(=O)c1ccc(OCCCN2CCNCC2)cc1 [Example 157, N-(3-(5-chloro-2-methyl-1H-indol-3-yl)propyl)-4-(3-(piperazin-1-yl)propoxy)benzenesulfonamide] |  | 1000 to 10000 | > 10000 |  | < 1000 | < 1000
CN1CCN(CCCOc2ccc(S(=O)(=O)NCCc3c[nH]c4ccc(Cl)cc34)cc2)CC1 [Example 158, N-(2-(5-chloro-1H-indol-3-yl)ethyl)-4-(3-(4-methylpiperazin-1-yl)propoxy)benzenesulfonamide] | < 1000 | < 1000 | > 10000 |  | < 1000 | < 1000
O=S(=O)(NCCc1c[nH]c2ccc(Cl)cc12)c1ccc(OCCCN2CCNCC2)cc1 [Example 159, N-(2-(5-chloro-1H-indol-3-yl)ethyl)-4-(3-(piperazin-1-yl)propoxy)benzenesulfonamide] | < 1000 | < 1000 | > 10000 |  | < 1000 | < 1000
O=S(=O)(NCCCc1c[nH]c2ccc(Cl)cc12)c1ccc(OCCCn2cncn2)cc1 [Example 160, 4-(3-(1H-1,2,4-triazol-1-yl)propoxy)-N-(3-(5-chloro-1H-indol-3-yl)propyl)benzenesulfonamide] | < 1000 | < 1000 | > 10000 |  | > 10000 | 
